Test results from patent US20250163078A1, “IMIDAZOPYRIDAZINE DERIVATIVE, AND PREPARATION METHOD THEREFOR, PHARMACEUTICAL COMPOSITION THEREOF AND USE THEREOF” (SHANGHAI SIMR BIOTECHNOLOGY CO., LTD., priority 2022, published 2025).
Like-named read-outs stand apart in the source and are kept apart here.

Columns and labels:
α2-GABAA receptor [1] = biological target: T1, α2-GABAA receptor (Homo sapiens, UniProt P18507+P47869); assay: Radioligand (3H-flunitrazepam) competitive binding assay at the BZD site
T1 construct: expressed in transfected cells
Excerpt: (§1) An α subunit, a β subunit, and a γ subunit are essential for the formation of a complete functional GABAA receptor. […] The α1-GABAAR-HEK293 cell model simultaneously expressed the α1 subunit (protein sequence available in GenBank with an accession No.: NM_000806.5), the β3 subunit (protein sequence available in GenBank with an accession No.: NM_000814.5), and the γ2 subunit (protein sequence available in GenBank with an accession No.: NM_000816.3). The α2-GABAAR-HEK293 cell model simultaneously expressed the α2 subunit (protein sequence available in GenBank with an accession No.: NM_000807.4), the β3 subunit (protein sequence available in GenBank with an accession No.: NM_000814.5), and the γ2 subunit (protein sequence available in GenBank with an accession No.: NM_000816.3).
(§2) The above cell lines were subcultured. The α2-GABAAR-HEK293 cells were expanded for assay of the benzodiazepine (BZD) site affinity of compounds for GABAA receptors.
The affinity of the compounds for the α2-GABAA receptor was determined by competing with ^3H-flunitrazepam (isotope ^3H-labelled flunitrazepam) for binding to the BZD site on the membrane proteins of HEK293 cells stably expressing the human α2-GABAA receptor.
Membrane preparation: The cells were suspended in 50 mM Tris-HCl buffer (pH=7.4), homogenized 10 times (20 s for each time) with a homogenizer on ice, and then centrifuged at 4° C. at 1000 g for 10 min. The supernatant was taken. The above steps were repeated. The supernatant was centrifuged (33800 g; Thermo, rotor: A27-8×50) at 4° C. for 60 min. The pellet was resuspended in Tris buffer (50 mM Tris-HCl, 10 mM MgCl2, 0.5 mM EDTA, and 10% glycerol). The protein content was determined (BCA (bicinchoninic acid) protein quantification assay based on the copper ion reduction method, with a BCA kit purchased from Pierce (Annoron (Beijing) Biotechnology Co., Ltd.)), and 1 mL aliquots were prepared and stored at −80° C.
Radioligand competitive binding assay: This assay was performed in a 200 μL system (96-well plate) containing 100 μL of cell membranes. The concentration of ^3H-flunitrazepam was 1 nM, and the concentrations of the test compounds were in the range of […]. Flumazenil was used as a control. To each low control (LC) well was added 1 μL of 2 mM flumazenil (the final concentration of 10 μM), and to each high control (HC) well was added 1 μL of dimethyl sulfoxide. The final concentration of the target membrane protein was […]. All sample stock solutions of test compounds were 10 mM solutions in dimethyl sulfoxide. All the samples were diluted to a concentration of 0.2 mM with dimethyl sulfoxide, and then subjected to a 4-fold serial dilution to give a total of 8 working concentration gradients. The 96-well plate was sealed with a plate sealing membrane and then incubated on a shaker at room temperature for 1 h. Meanwhile, a GF/C filter plate was soaked in a plate soaking buffer (0.3% PEI (polyethyleneimine, purchased from: Sigma-Aldrich, model: P314), stored at 4° C.) for at least 0.5 h. After the binding incubation was completed, the cells were harvested onto the GF/C filter plate using a cell harvester and washed 4 times with a washing buffer (50 mM Tris-HCl, pH 7.4, stored at 4° C.). After drying in an oven at 50° C. for 1 h, the dried GF/C filter plate was bottom-sealed. The residual radioactivity on the filter membrane was detected by liquid scintillation counting. Scintillation fluid was added at 50 µL/well, and then the plate was sealed. Readings were taken using Microbeta^2 (microplate counter, purchased from: PerkinElmer, model: CNLL0153). The inhibitory activity of the test samples on the binding of ^3H-flunitrazepam to the GABAA receptor membrane protein was calculated.

α1-GABAA receptor = biological target: T2, α1-GABAA receptor (Homo sapiens, UniProt P14867+P18507); assay: Whole-cell patch-clamp electrophysiological test of positive allosteric modulation, α1-GABAAR-HEK293 cells; format: cell-based; conditions: read-out: Positive allosteric modulation activity on α1-GABAAR
T2 construct: expressed in transfected cells
Excerpt: as §1, §2
(§3) The positive regulation activity of the test drugs on the α1-GABAA receptor and the α2-GABAA receptor was detected by the electrophysiological method. The specific method was as follows:
(§4) Compound concentration setting: the final concentration of the compounds used for screening was 100 nM. […] The components of the extracellular solution (ECS) for electrophysiology were as follows: 150 mM NaCl, 5 mM KCl, 2.5 mM CaCl2, 1 mM MgCl2, 10 mM HEPES, and 10 mM glucose (pH 7.4); the formulation of the intracellular solution (ICS) of electrodes for electrophysiology was as follows: 140 mM CsCl, 11 mM EGTA, 10 mM HEPES, 2 mM CaCl2, 1 mM MgCl2, 4 mM MgATP, and 2 mM TEA (pH 7.3). GABA (γ-aminobutyric acid) powder was prepared into a mother liquor with pure water, which was then diluted in ECS; the compounds were first prepared into 4 mM mother liquors with dimethyl sulfoxide and then gradually diluted to corresponding concentrations in GABA-ECS. The solutions were all prepared freshly prior to the electrophysiological test.
(§5) Electrophysiological signal acquisition was performed using an EPC 10 amplifier and PatchMaster software (HEKA) or an Axon700B amplifier and Clampex software (AXON).
(§6) The recording electrode was made by pulling borosilicate glass, with an electrode resistance of 4-6 MΩ. Extracellular administration was performed using the ALA-VC-8PG™ system. A single, independently growing cell was selected. After the glass electrode formed a good seal with the cell, the membrane was ruptured to form the whole-cell configuration. The cell membrane potential was clamped at −60 mV and recorded in Gap-free mode. During the test, the extracellular solution was first applied extracellularly for about 20 s. After the baseline (Iprebaseline) stabilized, the extracellular solution was switched to GABA-ECS. At this time, the current caused by GABA (Igaba) could be detected. After about 10-20 s, when the current stabilized, the extracellular solution was switched to a mixed solution of the compound and GABA-ECS. At this point, the current caused by both the compound and GABA (Itreatment) could be detected. Finally, the solution was switched to the extracellular solution, and the test was terminated after recording for 20-40 s.
(§7) The current values at each stage were calculated based on the average value of the current after stabilization under the corresponding conditions. We defined the control current as Igaba−Iprebaseline, and the current after compound treatment as Itreatment−Iprebaseline. The allosteric modulation activity of the compounds was expressed as a percentage, calculated by the following formula: functional activity=[(Itreatment−Igaba)/(Igaba−Iprebaseline)]×100%.

α2-GABAA receptor [2] = biological target: T1, α2-GABAA receptor; assay: Whole-cell patch-clamp electrophysiological test of positive allosteric modulation, α2-GABAAR-HEK293 cells; format: cell-based; conditions: read-out: Positive allosteric modulation activity on α2-GABAAR
Excerpt: as §1, §2, §3, §4, §5, §6, §7

[3] = membranes of HEK293 cells stably expressing human α2-GABAA receptor (α2β3γ2), 1 nM 3H-flunitrazepam, Ki calculated from IC50, read-out: α2 Ki
[4] = compound 100 nM, GABA about EC2-4, normalised to positive compound CVL-865 (=100%), negative value = reverse allosteric modulation
[5] = compound 100 nM, GABA 0.10-0.11 M [sic] (about EC70.8), normalised to positive compound CVL-865 (=100%)

Ki (α2-GABAA receptor [1]; [3]) [nM]	activation at 0.1 µM (α1-GABAA receptor; [4]) [%]	activation at 0.1 µM (α2-GABAA receptor [2]; [5]) [%]	Compound	Ki (α2-GABAA receptor [1]) [nM]	activation at 0.1 µM (α1-GABAA receptor) [%]	activation at 0.1 µM (α2-GABAA receptor [2]) [%]
11.8	49	89	CCn1cnc2c(-c3ccc(F)c(-c4cn5cc(C6CCOCC6)nc5cc4OC)c3)cnnc21 [Example 36, 7-Ethyl-4-(4-fluoro-3-(7-methoxy-2-(tetrahydro-2H-pyran-4-yl)imidazo[1,2-a]pyridin-6-yl)phenyl)-7H-imidazo[4,5-c]pyridazine]	–	–	–
6.53	-14	94	CCn1cnc2c(-c3ccc(F)c(-c4ccn5c(C6CC6)nnc5c4OC)c3)cnnc21 [Example 38, 4-(3-(3-Cyclopropyl-8-methoxy-[1,2,4]triazolo[4,3-a]pyridin-7-yl)-4-fluorophenyl)-7-ethyl-7H-imidazo[4,5-c]pyridazine]	–	–	–
2.89	-39	102	CCn1cnc2c(-c3ccc(F)c(-c4ccn5c(C)nnc5c4OC)c3)cnnc21 [Example 32, 7-Ethyl-4-(4-fluoro-3-(8-methoxy-3-methyl-[1,2,4]triazolo[4,3-a]pyridin-7-yl)phenyl)-7H-imidazo[4,5-c]pyridazine]	–	–	–
16.5	44	82	CCn1cnc2c(-c3ccc(F)c(-c4c(OC)ccc5nccn45)c3)cnnc21 [Example 49, 7-Ethyl-4-(4-fluoro-3-(6-methoxyimidazo[1,2-a]pyridin-5-yl)phenyl)-7H-imidazo[4,5-c]pyridazine]	–	–	–
5.12	19	126	CCn1cnc2c(-c3ccc(F)c(-c4ccn5c(C6COC6)nnc5c4OC)c3)cnnc21 [Example 28, 7-Ethyl-4-(4-fluoro-3-(8-methoxy-3-(oxetan-3-yl)-[1,2,4]triazolo[4,3-a]pyridin-7-yl)phenyl)-7H-imidazo[4,5-c]pyridazine]	–	–	–
8.17	-56	95	CCn1cnc2c(-c3ccc(F)c(-c4ccn5c(C6CCOC(C)(C)C6)nnc5c4OC)c3)cnnc21 (centres unmarked) [Example 16, 4-(3-(3-(2,2-Dimethyltetrahydro-2H-pyran-4-yl)-8-methoxy-[1,2,4]triazolo[4,3-a]pyridin-7-yl)-4-fluorophenyl)-7-ethyl-7H-imidazo[4,5-c]pyridazine]	–	–	–
2.85	-49	100	CCn1cnc2c(-c3ccc(F)c(-c4ccn5c(C6CCC6)nnc5c4OC)c3)cnnc21 [Example 17, 4-(3-(3-Cyclobutyl-8-methoxy-[1,2,4]triazolo[4,3-a]pyridin-7-yl)-4-fluorophenyl)-7-ethyl-7H-imidazo[4,5-c]pyridazine]	–	–	–
5.79	32	104	CCn1cnc2c(-c3ccc(F)c(-c4cn5cc(C6(F)CC6)nc5cc4OC)c3)cnnc21 [Example 12, 7-Ethyl-4-(4-fluoro-3-(2-(1-fluorocyclopropyl)-7-methoxyimidazo[1,2-a]pyridin-6-yl)phenyl)-7H-imidazo[4,5-c]pyridazine]	–	–	–
–	–	–	CCn1cnc2c(-c3ccc(F)c(-c4cn5cc(C)nc5cc4OC)c3)cnnc21 [Example 50, 7-Ethyl-4-(4-fluoro-3-(7-methoxy-2-methylimidazo[1,2-a]pyridin-6-yl)phenyl)-7H-imidazo[4,5-c]pyridazine]	9.89	29	103
6.6	-51	156	CCn1cnc2c(-c3ccc(F)c(-c4ccn5c(C(C)C)nnc5c4OC)c3)cnnc21 [Example 29, 7-Ethyl-4-(4-fluoro-3-(8-methoxy-3-isopropyl-[1,2,4]triazolo[4,3-a]pyridin-7-yl)phenyl)-7H-imidazo[4,5-c]pyridazine]	–	–	–
12	6	143	CCc1cn2cc(-c3cc(-c4cnnc5c4ncn5CC)ccc3F)c(OC)cc2n1 [Example 30, 7-Ethyl-4-(3-(2-ethyl-7-methoxyimidazo[1,2-a]pyridin-6-yl)-4-fluorophenyl)-7H-imidazo[4,5-c]pyridazine]	–	–	–
6.05	4	110	COc1c(-c2cc(-c3cnnc4c3ncn4C(C)C)ccc2F)ccn2c(C3CC3)nnc12 [Example 27, 4-(3-(3-Cyclopropyl-8-methoxy-[1,2,4]triazolo[4,3-a]pyridin-7-yl)-4-fluorophenyl)-7-isopropyl-7H-imidazo[4,5-c]pyridazine]	–	–	–
8.07	19	99	CCn1cnc2c(-c3ccc(F)c(-c4cn5ccnc5cc4OC)c3)cnnc21 [Example 52, 7-Ethyl-4-(4-fluoro-3-(7-methoxyimidazo[1,2-a]pyridin-6-yl)phenyl)-7H-imidazo[4,5-c]pyridazine]	–	–	–
–	-16	118	CCn1cnc2c(-c3ccc(F)c(-c4ccn5c(C6CC(OC)C6)nnc5c4OC)c3)cnnc21 (centres unmarked) [Example 6, 7-Ethyl-4-(4-fluoro-3-(8-methoxy-3-(3-methoxycyclobutyl)-[1,2,4]triazolo[4,3-a]pyridin-7-yl)phenyl)-7H-imidazo[4,5-c]pyridazine]	–	–	–
